Results from patent US8946409B2, “Polycyclic β lactam derivatives for the treatment of cancer” (Board of Regents, The University of Texas System, priority 2011, dated 2015).
Like-named read-outs stand apart in the source and are kept apart here.

Legend:
[1] = tested on: PC-3; test: MTT assay, PC-3 cells; type: cell-based, human; details: PC-3, carcinoma of the prostate, 72 hours, Table 1, read-out: IC50 in Cancer Cells Using the MTT Assay
Procedure: (§1) 8×10^3 cells/well were plated in a […]. Stock solutions of the agents were made in DMSO. Dilution of the compounds were in media with 10% FBS (fetal bovine serum). The cells were incubated in the drug for 72 hours and cell viability was determined by the MTT assay. IC50 was then calculated.

[2] = tested on: PANC-1; test: MTT assay, PANC-1 cells; type: cell-based, human
Procedure: as §1

[3] = tested on: BRO; test: MTT assay, BRO cells; type: cell-based, human; details: melanoma, 72 hours, Table 1, read-out: IC50 in Cancer Cells Using the MTT Assay
Procedure: as §1

[4] = tested on: A-549; test: MTT assay, A-549 cells; type: cell-based, human; details: A-549, Non-Small Cell Carcinoma of the Lung, 72 hours, Table 1, read-out: IC50 in Cancer Cells Using the MTT Assay
Procedure: as §1

[5] = tested on: HT-29; test: MTT assay, HT-29 cells; type: cell-based, human; details: HT-29, colon carcinoma, 72 hours, Table 1, read-out: IC50 in Cancer Cells Using the MTT Assay
Procedure: as §1

[6] = tested on: MDA-231; test: MTT assay, MDA-231 cells; type: cell-based, human; details: MDA-231, breast cancer, 72 hours, Table 1, read-out: IC50 in Cancer Cells Using the MTT Assay
Procedure: as §1

[7] = tested on: BXPC-3; test: MTT assay, BXPC-3 cells; type: cell-based; details: Homo sapiens, Table 2, read-out: IC50 against Human Pancreatic Cancer Lines Using the MTT Assay
Procedure: as §1

[8] = tested on: Miapaca-2; test: MTT assay, Miapaca-2 cells; type: cell-based, human; details: for IC50: Homo sapiens, MIA PaCa-2, Miapaca-2, Table 2, read-out: IC50 against Human Pancreatic Cancer Lines Using the MTT Assay
Procedure: as §1

[9] = tested on: SW-1990; test: MTT assay, SW-1990 cells; type: cell-based; details: Homo sapiens, SW1990, Table 2, read-out: IC50 against Human Pancreatic Cancer Lines Using the MTT Assay
Procedure: as §1

[10] = Body weight of tumor-bearing mice during treatment; type: in vivo, athymic nude mice; details: determined weekly through the treatment regimen
Procedure: (§2) The anti-tumorigenic activity of TX-262 was assessed in 4 week old male athymic nude mice by using a luciferase gene, stably-expressing, highly aggressive line of human pancreatic cells, MPanc96. 2×10^5/50 ul luciferase-labeled MPanc96 cells were injected directly into the mouse pancreas. […] Bioluminescent imagining was utilized to estimate tumor volume and location and mice were then divided into two groups such that the mean tumor size was equal between the groups. For the next five weeks mice in the control group were treated with DMSO only; while Group II mice were treated Monday through Friday as follows: 100 mg/K bw i.p. at zero time [AM] and a booster dose of 25 mg/K bw i.p. 90 minutes later. Each week body weight and mortality were recorded and tumor growth was monitored by bioluminescence imaging.

[11] = tested on: CoLo35FG; test: MTT assay, CoLo35FG cells; type: cell-based; details: Homo sapiens, Table 2, read-out: IC50 against Human Pancreatic Cancer Lines Using the MTT Assay
Procedure: as §1

[12] = tested on: Pan02.03; test: MTT assay, Pan02.03 cells; type: cell-based; details: Homo sapiens, Table 2, read-out: IC50 against Human Pancreatic Cancer Lines Using the MTT Assay
Procedure: as §1

[13] = tested on: MPanc96 cells; test: In vivo anti-tumorigenic activity, luciferase-labeled MPanc96 cells injected into mouse pancreas; set-up: species or system athymic nude mice
Procedure: as §2
Bioluminescence imaging utilized a cryogenically cooled image system coupled to a data acquisition computer running LivingImage Software [Xenogen Corp., Alameda Calif.]. Prior to imaging, the mice were anesthetized in an acrylic chamber using 1.5% isofluoroane/air mixture and injected i.p. with 40 mg/ml of luciferin potassium salt in PBS at a dose of 150 mg/K bw.
A digital grayscale animal image was acquired followed by acquisition and overlay of a pseudo color image representing the spacial distribution of detected photons emerging from active luciferase within the mouse. […]

[14] = tested on: ASCP-1; test: MTT assay, ASCP-1 cells; type: cell-based; details: Homo sapiens, Table 2, read-out: IC50 against Human Pancreatic Cancer Lines Using the MTT Assay
Procedure: as §1

[15] = PANC-1, pancreatic cancer, 72 hours, Table 1, read-out: IC50 in Cancer Cells Using the MTT Assay
[16] = Homo sapiens, PANC-1, PANC-1, Table 2 (average of runs), read-out: IC50 against Human Pancreatic Cancer Lines Using the MTT Assay

Row | SMILES | IC50 [1] | IC50 [2, 15] | IC50 [3] | IC50 [4] | IC50 [5] | IC50 [6] | IC50 [7] | IC50 [8] | IC50 [2, 16] | IC50 [9] | IC50 [12] | IC50 [14] | also measured
1 | N.N.[Cl][Pt][Cl] [Cisplatin, cisplatin] | 2.1 µM | > 100 µM | 5.7 µM | > 100 µM | 17 µM | 10.1 µM | – | – | – | – | – | – | –
2 | CN1CCN(C(=O)CCC(=O)Nc2cc3c4ccccc4ccc3c3ccccc23)CC1 [Compound 1b, 1-N-6′-Chrysenyl-4′-4-N-methylpiperazine-butane-1,4-dicarboxyamide] | 27.3 µM | > 100 µM | 33.6 µM | > 100 µM | 16.7 µM | 12.2 µM | – | – | – | – | – | – | –
3 | CS(=O)(=O)O[C@H]1C(=O)N(c2cc3c4ccccc4ccc3c3ccccc23)C1c1ccccn1 (stereo partly drawn) [Compound 12, (3R)-1-(chrysen-6-yl)-2-oxo-4-(pyridin-2-yl)azetidin-3-yl methanesulfonate] | – | – | – | – | – | – | 0.43 µM | 12 µM | < 1 µM | 1.3 µM | 0.39 µM | 1.5 µM | Effective concentration relative to the concentration required by GEM ([8]; GEM-resistant line Miapaca-2): approximately one-half; IC50 ([1]; Homo sapiens): 0.51 µM; IC50 ([2]; Homo sapiens, PANC-1, 72 h, PANC-1, pancreatic cancer, 72 hours, Table 1, read-out: IC50 in Cancer Cells Using the MTT Assay): 0.43 µM; IC50 ([2]; PANC-1, Table 2 (average of runs), read-out: IC50 against Human Pancreatic Cancer Lines Using the MTT Assay): 0.75 µM; Weights of mice, treated versus control [10]: No significant differences; IC50 ([3]; Homo sapiens): 0.64 µM; IC50 ([4]; Homo sapiens, A549): 0.96 µM; IC50 [11]: 2.7 µM; IC50 ([5]; Homo sapiens): 0.36 µM; Viable tumor mass relative to that in control mice ([13]; at 5 weeks, 100 mg/K bw i.p. plus 25 mg/K bw i.p. 90 minutes later, Monday through Friday, bioluminescence imaging): approximately 33%; Surviving (viable) mice ([13]; at 6 weeks, control mice 20%): 80%; IC50 ([6]; Homo sapiens, MDA-MB-231): 0.43 µM
4 | Nc1ccn([C@@H]2O[C@H](CO)[C@@H](O)C2(F)F)c(=O)n1 [GEM, gemcitabine] | – | – | – | – | – | – | 0.3 µM | 25.7 µM | > 300 µM | 0.4 µM | 0.15 µM | 0.1 µM | IC50 against Human Pancreatic Cancer Lines Using the MTT Assay ([2]; PANC-1, Table 2 (average of runs)): inactive
